# Earlier results in patent publication US20180028451A1, “IMMEADIATE RELEASE ORAL TABLET” (Boehringer Ingelheim International GmbH, priority 2015, published 2018).
# Details: physiological pH range of the gastro-intestinal tract between pH 1 to 7
smiles,measurement,value
"CCCc1nc2c(C)cc(-c3nc4ccccc4n3C)cc2n1Cc1ccc(-c2ccccc2C(=O)O)cc1 [Telmisartan, 4′-[2-n-propyl-4-methyl-6-(1-methylbenzimidazol-2-yl)-benzimidazol-1-ylmethyl]-biphenyl-2-carboxylic acid]",solubility in aqueous systems,very poor solubility
